This assay addresses T1, human NTCP (Homo sapiens, UniProt Q14973).
T1 sequence (Q14973 1-349): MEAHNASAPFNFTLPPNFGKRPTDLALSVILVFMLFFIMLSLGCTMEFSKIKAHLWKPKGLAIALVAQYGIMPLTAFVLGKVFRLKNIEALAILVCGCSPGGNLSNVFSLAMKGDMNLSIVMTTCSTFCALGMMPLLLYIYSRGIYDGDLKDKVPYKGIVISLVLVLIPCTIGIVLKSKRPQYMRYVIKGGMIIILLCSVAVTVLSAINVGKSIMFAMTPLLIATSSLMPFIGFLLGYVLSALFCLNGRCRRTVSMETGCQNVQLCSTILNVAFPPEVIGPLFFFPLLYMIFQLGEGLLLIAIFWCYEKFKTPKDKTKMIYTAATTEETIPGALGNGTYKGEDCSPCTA
The assay can be described thus: Screening taurocholate uptake assay (96-well, [14C]taurocholate, 10 µM drug).

Setting [1] is: combined ranking of functional and binding screening assays.
Setting [2] is: screening taurocholate uptake, 10 µM drug.
The mark [3] stands for this setting: screening taurocholate uptake, 10 µM drug, B-score.
The mark [4] stands for this setting: ranking over the functional and the binding screening assay.

Where a name gives a salt, the structure may show the parent alone. Read-outs that look alike come from different tables or passages of the source.

Regarding `CC(=O)OCC(=O)[C@@]1(O)[C@H](C)C[C@H]2[C@@H]3CCC4=CC(=O)C=C[C@]4(C)[C@@]3(F)[C@@H](O)C[C@@]21C` [Dexamethasone acetate], the Ranking score under setting [1] was 586.678. Moreover, the B-score functional assay under setting [2] worked out at 0.046. Turning to `NS(=O)(=O)c1cc(C(=O)O)c(NCc2ccco2)cc1Cl` [Furosemide], under setting [1], the Ranking score was 1165.28. Besides, the B-score functional assay under setting [3] is given as 1.457.

As for `COc1cc2nc(N(C)CCCNC(=O)C3CCCO3)nc(N)c2cc1OC` (stereo not drawn) [Alfuzosin hydrochloride], the Ranking score under setting [4] is 237.095. The compound also displayed a B-score functional assay under setting [2] of -2.737. For the compound `CN(C)CCN(Cc1ccccc1)c1ccccn1` [Tripelennamine hydrochloride], under setting [1], the Ranking score is given as 512.348. The B-score functional assay under setting [2] is -0.493. Regarding `COc1cc(N)c(Cl)cc1C(=O)NC1CCN(CCCOc2ccc(F)cc2)CC1OC` (stereo not drawn) [Cisapride], under setting [4], the Ranking score stood at 235.1. Under setting [2], this compound displayed a B-score functional assay of -0.847. For `CCOC(=O)NNc1nncc2ccccc12` [Todralazine hydrochloride], in that order: 269.251 and -1.372. In the same order, the values of `NCCc1c[nH]c2ccc(O)cc12` [Serotonin hydrochloride] are 107.778 and 0.952.

In the case of `CC(C)N1CCN(c2ccc(OCC3COC(Cn4cncn4)(c4ccc(Cl)cc4Cl)O3)cc2)CC1` (stereo not drawn) [Terconazole], the Ranking score under setting [1] stood at 502.144. Also, the B-score functional assay under setting [2] is recorded as -0.057.

As for `CN(C)CCCC1(c2ccc(F)cc2)OCc2cc(C#N)ccc21` (stereo not drawn) [Citalopram Hydrobromide], the Ranking score under setting [4] is given as 277.496. Besides, the B-score functional assay under setting [2] is reported as -1.909.

For `CO[C@H]1/C=C/O[C@@]2(C)Oc3c(C)c(O)c4c(O)c(c5c(nc6cc(C)ccn65)c4c3C2=O)NC(=O)/C(C)=C\C=C\[C@H](C)[C@H](O)[C@@H](C)[C@@H](O)[C@@H](C)[C@H](OC(C)=O)[C@@H]1C` [Rifaximin], under setting [1], the Ranking score is 627.999. This compound also displayed a B-score functional assay under setting [2] of -0.408. In turn, `COc1cc2c(c(OC)c1OC)-c1ccc(OC)c(=O)cc1[C@@H](NC(C)=O)CC2` [Colchicine] yielded a B-score functional assay of -0.631. For `CC(=O)CCCCn1c(=O)c2c(ncn2C)n(C)c1=O` [Pentoxifylline], under setting [1], the Ranking score worked out at 582.174. Besides, the B-score functional assay under setting [2] is listed as -0.027.

Consider `CC(C)(C)NCC(O)c1cc(Cl)c(N)c(Cl)c1` (stereo not drawn) [Clenbuterol hydrochloride], for which, under setting [1], the Ranking score turned out to be 497.397. For the same compound, the B-score functional assay under setting [2] is -0.705.

In turn, `O=C(Nc1ccc([N+](=O)[O-])cc1Cl)c1cc(Cl)ccc1O` [Niclosamide] gave a Ranking score under setting [4] of 178.326. Under setting [2], the B-score functional assay is given as -3.546.

`CN[C@@H]1[C@H](O[C@H]2[C@H](O[C@H]3[C@H](O)[C@@H](O)[C@H](NC(=N)N)[C@@H](O)[C@@H]3NC(=N)N)O[C@@H](C)[C@]2(O)CO)O[C@@H](CO)[C@H](O)[C@H]1O` [Dihydrostreptomycin sulfate]: the Ranking score under setting [4] worked out at 143.478. Under setting [2], this compound had a B-score functional assay of -2.479. Turning to `NC[C@H]1O[C@H](O[C@H]2[C@H](O)[C@@H](O[C@H]3O[C@H](CO)[C@@H](O)[C@H](N)[C@H]3O)[C@H](N)C[C@@H]2N)[C@H](N)C[C@@H]1O` [Tobramycin], the Ranking score under setting [1] is reported as 498.515. In addition, the B-score functional assay under setting [2] is -0.213.

Turning to `Nc1nc2c(ncn2CCC(CO)CO)c(=O)[nH]1` [Penciclovir], the Ranking score under setting [1] was 573.819. Moreover, the B-score functional assay under setting [2] was -0.886. Under setting [4], `C[N+]1(C)CCOC(O)(c2ccc(-c3ccc(C4(O)C[N+](C)(C)CCO4)cc3)cc2)C1.[Br-].[Br-]` (stereo not drawn) [Hemicholinium bromide] came in with a Ranking score of 262.621. Further, the B-score functional assay under setting [2] was -3. `Cc1cccc(Nc2ccccc2C(=O)O)c1C` [Mefenamic acid] had a Ranking score under setting [4] of 180.289. Further, under setting [2], the B-score functional assay was -1.919. For `CC1=C(/C=C/C(C)=C/C=C/C(C)=C/C(=O)O)C(C)(C)CCC1` [Retinoic acid], in that order: 197.388 and -0.152.

With `CCCCOc1cc(C(=O)NCCN(CC)CC)c2ccccc2n1` [Dibucaine], the Ranking score under setting [1] worked out at 1210.75. The same compound yielded a B-score functional assay under setting [3] of 1.579. In the case of `CC(=O)OCC(=O)[C@@]12OC(C)(C)O[C@@H]1C[C@H]1[C@@H]3C[C@H](F)C4=CC(=O)C=C[C@]4(C)[C@@]3(F)[C@@H](O)C[C@@]12C` [Fluocinonide], the Ranking score under setting [1] is recorded as 619.745. The compound further registered a B-score functional assay under setting [2] of 0.319. `COc1ccc(-c2ccc(=N)n(CCCC(=O)O)n2)cc1` [Gabazine bromide] displayed a Ranking score under setting [4] of 269.035. For the same compound, the B-score functional assay under setting [2] was -0.231. For `CC(C)CC(N(C)C)C1(c2ccc(Cl)cc2)CCC1.Cl` (stereo not drawn) [Sibutramine HCl], in that order: 211.232 and -0.386. Turning to `CS(=O)(=O)c1ccc([C@@H](O)[C@@H](CO)NC(=O)C(Cl)Cl)cc1` [Thiamphenicol], the Ranking score under setting [1] was found to be 545.996. Under setting [2], this compound returned a B-score functional assay of -0.089. In turn, `NC[C@H]1CC[C@H](C(=O)O)CC1` [Tranexamic acid] returned a Ranking score under setting [4] of 255.588. The B-score functional assay under setting [2] turned out to be 0.375. For `CCCCNc1c(C(=O)OCC)c(C)nc2c1cnn2CC.Cl` [Tracazolate hydrochloride], in that order: 238.155 and -1.912. As for `CCOC(=O)c1ccc(N)cc1` [Benzocaine], the Ranking score under setting [4] came out at 153.542. Also, the B-score functional assay under setting [2] is given as -1.326.

In turn, `CC(C)(C(=O)O)c1ccc(C(O)CCCN2CCC(C(O)(c3ccccc3)c3ccccc3)CC2)cc1` (stereo not drawn) [Fexofenadine HCl] yielded a Ranking score under setting [4] of 234.288. Under setting [2], this compound returned a B-score functional assay of -2.318. As for `Cc1cccc(N(C)C(=S)Oc2ccc3ccccc3c2)c1` [Tolnaftate], the Ranking score under setting [1] is 550.781. Also, the B-score functional assay under setting [2] amounted to 6.72. In the same order, the values of `CCC(COC(=O)c1cc(OC)c(OC)c(OC)c1)(c1ccccc1)N(C)C` (stereo not drawn) [Trimebutine] are 579.884 and -0.018. For `Cl.OC(CCN1CCCCC1)(c1ccccc1)C1CCCCC1` (stereo not drawn) [Trihexyphenidyl-D,L Hydrochloride], under setting [1], the Ranking score is listed as 472.758. This compound also gave a B-score functional assay under setting [2] of 0.458. For `COC(c1ccccc1)(c1ccccc1)[C@H](Oc1nc(C)cc(C)n1)C(=O)O` [Ambrisentan], in that order: 629.311 and -0.389.

Regarding `C[C@@H](O)[C@H]1C(=O)N2C(C(=O)O)=C(SCCN=CN)C[C@H]12` [Imipenem], the Ranking score under setting [1] is reported as 1154.72. Also, the B-score functional assay under setting [3] is reported as 1.996.

On to `O=C(O)Cc1ccc(-c2ccccc2)cc1` [Felbinac], for which the Ranking score under setting [1] stood at 476.874. The compound also showed a B-score functional assay under setting [2] of -1.207.

Under setting [4], `c1ccc(-c2ccc(C(c3ccccc3)n3ccnc3)cc2)cc1` (stereo not drawn) [Bifonazole] had a Ranking score of 164.499. Further, the B-score functional assay under setting [2] is on record as -2.294. `COCC1=C(C(=O)OC(C)OC(=O)OC(C)C)N2C(=O)[C@@H](NC(=O)/C(=N\OC)c3csc(N)n3)[C@H]2SC1` (stereo partly drawn) [Cefpodoxime proxetil]: under setting [1], the Ranking score stood at 640.176. Further, the B-score functional assay under setting [2] is on record as -0.201. Regarding `CC[N+](C)(CC)CCC[n+]1c(-c2ccccc2)c2cc(N)ccc2c2ccc(N)cc21.[I-].[I-]` [Propidium iodide], the Ranking score under setting [1] stood at 504.845. For the same compound, the B-score functional assay under setting [2] was -1.35. For `CC(C)NCC(O)COc1ccc(COCCOC(C)C)cc1` (stereo not drawn) [Bisoprolol fumarate], the Ranking score under setting [4] is on record as 263.481. Besides, under setting [2], the B-score functional assay is reported as 0.023.

On to `OCCN1CCN(CCCN2c3ccccc3C=Cc3ccccc32)CC1` [Opipramol dihydrochloride], for which, under setting [1], the Ranking score was determined as 627.796. Besides, the B-score functional assay under setting [2] is -0.641.

For the compound `CO/N=C(\C(=O)N[C@@H]1C(=O)N2C(C(=O)O)=C(C[N+]3(C)CCCC3)CS[C@H]12)c1csc(N)n1` [Cefepime hydrochloride], the Ranking score under setting [1] was 1157.98. The compound further returned a B-score functional assay under setting [3] of 1.484. In the case of `CN(C)CCCOc1nn(Cc2ccccc2)c2ccccc12` [Benzydamine hydrochloride], the Ranking score under setting [1] is 571.97. Besides, the B-score functional assay under setting [2] is given as 0.075. For `CN(CCCN1c2ccccc2CCc2ccccc21)CC(=O)c1ccc(Cl)cc1` [Lofepramine], in that order: 479.183 and 0.81. For the compound `O=C(OCCOCCO)c1ccccc1Nc1cccc(C(F)(F)F)c1` [Etofenamate], the Ranking score under setting [4] amounted to 165.439. Under setting [2], this compound showed a B-score functional assay of 1.885.

As for `O=c1[nH]c2ccccc2n1CCCN1CCC(n2c(=O)[nH]c3cc(Cl)ccc32)CC1` [Domperidone], under setting [1], the Ranking score is listed as 475.277. Also, the B-score functional assay under setting [2] is reported as -1.309.

`CC(C)c1c(C(=O)Nc2ccccc2)c(-c2ccccc2)c(-c2ccc(F)cc2)n1CC[C@@H](O)C[C@@H](O)CC(=O)O` [Atorvastatin] returned a Ranking score under setting [4] of 231.469. The B-score functional assay under setting [2] is recorded as -2.669. Consider `CC[C@H](C)C(=O)O[C@H]1C[C@@H](C)C=C2C=C[C@H](C)[C@H](CC[C@@H]3C[C@@H](O)CC(=O)O3)[C@H]21` [Lovastatin], for which the Ranking score under setting [4] amounted to 175.818. Also, under setting [2], the B-score functional assay was -0.084.

The values above are taken from publication PMC5681660, “Reduced hepatitis B and D viral entry using clinically applied drugs as novel inhibitors of the bile acid transporter NTCP” (Scientific Reports, 2017).
